In US20040082664A1, “Derivatives of hydroxyphenyl, a method for preparing thereof and their pharmaceutical composition” (priority 2002, published 2004):

Assays:
[1] = target: T1, GST-fused lck SH2 domain (Homo sapiens, UniProt P06239); experiment: Inhibition of in vitro binding of lck SH2 domain to its cognate pYEEI peptide (BIAcore 2000); conditions: IC50 class for inhibition of GST-lckSH2 binding to immobilized biotinylated […]pYEEIPI peptide; read-out: BOND DEGREE WITH SH2 OF 1ck
T1 construct: GST (Glutathione transferase)-fused lck SH2 domain
T1 sequence (P06239 127-224 limits assumed): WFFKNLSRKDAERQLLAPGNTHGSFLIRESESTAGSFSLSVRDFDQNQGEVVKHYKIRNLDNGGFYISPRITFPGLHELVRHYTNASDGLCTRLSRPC
Experimental: The present inventors investigated the inhibition activity of phenyl derivatives on the interaction of GST (Glutathione transferase)-fused lck SH2 domain and a peptide […]pYEEIPI (comprising the sequence PYEEI, a cognate peptide of Lck SH2) by using a real time sensorgram (BIAcore 2000).
At first, the biotinylated peptide was fixed on the surface of BIAcore analysis apparatus and then GST-lckSH2 protein was injected over the surface of the immobilized peptides. The binding of GST-lck SH2 with the peptide is represented as the resonance units (referred as “RU” hereinafter) and 1,000 RU corresponds to a change in surface concentration of 1 ng/mm^2. The binding of GST-lck with the fixed peptide causes the change of refractory index, leading to the increase of RU. In the mean time, when the binding of GST-lck with the fixed peptide is inhibited, RU decreases. Those results are represented in Table 1.

[2] = system: IL-2 promoter; experiment: IL-2 promoter luciferase reporter assay in anti-CD3 activated Jurkat cells; assay type: cell-based; conditions: Homo sapiens, TCR-induced (anti-CD3) IL-2 promoter luciferase, 2 h pre-incubation
Experimental: In order to confirm whether the compounds of the invention can pass through a cell membrane and inhibit the expression of IL-2 gene leading to T-cell proliferation, the present inventors firstly confirmed T-cell activity by detecting the activity of the luciferase fused on the downstream of IL-2 promoter.
To investigate the activity of IL-2 promoter, Jurkat cells (1×10^6) were transfected with a IL-2 reporter plasmids using Superfect™ (Qiagen Inc.). After 24 hours of transfection, Jurkat cells were pre-incubated with compounds of various concentrations (1 uM-50 uM) for 2 hours and further cultured on 35mm plate pre-coated with 5 ug/ml of anti-CD3 antibody, resulting in T cell activation. The luciferase activity was measured using Berthold luminometer LB953. The IC50 (50% inhibition concentration) of the compounds of the invention on TCR-induced IL-2 promoter activation are shown in Table 2.

[3] = system: collagen-induced rheumatoid arthritis; experiment: Inhibition of collagen-induced rheumatoid arthritis in DBA1/LacJ mice; assay type: in vivo, mouse; parameters: key: sum of 4 leg scores (0-4 each), max 16; conditions: maximum 16, mean ± standard deviation
Experimental: After 2 weeks, booster immunization was carried out with 50 μg C II/IFA. From the 3rd week after primary immunization, compounds of the present invention were injected daily into peritoneal cavities of 6-8 mice per group for 15-20 days.
The vehicle control groups were injected daily with 100 μl of 5% ethanol-olive oil mixture in total 15-20 times. Widely used anti-rheumatic drug, Methotrexate, was dissolved in PBS and then injected to mice at 1 mg/kg/day every other day in total 8-10 times. Meanwhile, the compounds of the invention were dissolved in ethanol and then mulsified in olive oil, in which the final ethanol concentration was adjusted to 5% and the compounds of this invention was 50 mg/kg/day.
From the 3rd week after primary immunization, the extent of edema and the joint swelling was monitored everyday to determine arthritic index. Arthitic index is the sum of the arthritic scores of all 4 legs and, therefore, maximum arthritis index of 16 can be achieved (e.g., [4 (maximum arthritic score)/leg]×[4 legs/mouse]=16 (maximum arthritis index/mouse)). […] was presented by the mean arthritis index±standard deviation of each mouse group.

[4] = 50 mg/kg/day i.p. daily, day 15 after treatment (day 36 after primary immunization), sum of scores of four legs

## CCCOC(=O)[C@@H](Cc1ccc(O)c(O)c1)NC(=O)/C=C/c1ccc(O)c(O)c1 [Example 4, 3-(3,4-dihydroxy-phenyl)-(R)-2-[3-trans-(3,4-dihydroxy-phenyl)-acryloylamino]-propionic acid propyl ester]
[1]
  IC50: < 10 µM
[2]
  IC50: 7.8 µM
[3]; [4]
  Arthritis index: 5.6 ± 0.5

## CN(C(=O)/C=C/c1ccc(O)c(O)c1)[C@H](Cc1ccc(O)c(O)c1)C(=O)O [Example 30]
[1]
  IC50: 25 to 50 µM
[2]
  IC50: 15.8 µM
[3]; [4]
  Arthritis index: 6.5 ± 0.6

## CN(C(=O)/C=C/c1ccc(O)c(O)c1)[C@H](Cc1ccc(O)c(O)c1)C(=O)OC(C)(C)C [Example 34, 3-(3,4-dihydroxy-phenyl)-(R)-2-{[3-trans-(3,4-dihydroxy-phenyl)-acryloyl]-methyl-amino}-propionic acid tert-butyl ester]
[1]
  IC50: 25 to 50 µM
[2]
  IC50: 14.9 µM
[3]; [4]
  Arthritis index: 6.3 ± 0.8

## CCOC(=O)[C@H](Cc1ccc(O)c(O)c1)N(C)C(=O)/C=C/c1ccc(O)c(O)c1 [Example 38, 3-(3,4-dihydroxy-phenyl)-(S)-2-{[3-trans-(3,4-dihydroxy-phenyl)-acryloyl]-methyl-amino}-propionic acid ethyl ester]
[1]
  IC50: 10 to 25 µM
[2]
  IC50: 11 µM
[3]; [4]
  Arthritis index: 5.5 ± 1.3

## CN(C(=O)/C=C/c1ccc(O)c(O)c1)[C@@H](Cc1ccc(O)c(O)c1)C(=O)O [Example 37, 3-(3,4-dihydroxy-phenyl)-(S)-2-{[3-trans-(3,4-dihydroxy-phenyl)-acryloyl]-methyl-amino}-propionic acid]
[1]
  IC50: 25 to 50 µM
[2]
  IC50: 17.3 µM
[3]; [4]
  Arthritis index: 6.7 ± 0.7

## COC(=O)[C@@H](Cc1ccc(O)c(O)c1)NC(=S)/C=C/c1ccc(O)c(O)c1 [Example 15, 3-(3,4-dihydroxy-phenyl)-(R)-2-[3-trans-(3,4-dihydroxy-phenyl)-thioacryloylamino]-propionic acid methyl ester]
[1]
  IC50: 10 to 25 µM
[2]
  IC50: 17.1 µM
[3]; [4]
  Arthritis index: 5.7 ± 0.9

## CC(C)(C)OC(=O)[C@@H](Cc1ccc(O)c(O)c1)NC(=S)/C=C/c1ccc(O)c(O)c1 [Example 20, 3-(3,4-dihydroxy-phenyl)-(R)-2-[3-trans-(3,4-dihydroxy-phenyl)-thioacrylolamino]-propionic acid tert-butyl ester]
[1]
  IC50: 25 to 50 µM
[2]
  IC50: 21.4 µM
[3]; [4]
  Arthritis index: 6.7 ± 0.4

## NC(=O)[C@@H](Cc1ccc(O)c(O)c1)NC(=S)/C=C/c1ccc(O)c(O)c1 [Example 21, 3-(3,4-dihydroxy-phenyl)-(R)-2-[3-trans-(3,4-dihydroxy-phenyl)-thioacryloylamino]-propioneamide]
[1]
  IC50: 10 to 25 µM
[2]
  IC50: 7.8 µM
[3]; [4]
  Arthritis index: 5.8 ± 1.3

## CC(C)OC(=O)[C@@H](Cc1ccc(O)c(O)c1)NC(=O)/C=C/c1ccc(O)c(O)c1 [Example 5, 3-(3,4-dihydroxy-phenyl)-(R)-2-[3-trans-(3,4-dihydroxy-phenyl)-acryloylamino]-propionic acid isopropyl ester]
[1]
  IC50: < 10 µM
[2]
  IC50: 6.5 µM
[3]; [4]
  Arthritis index: 4.9 ± 1.2

## CC(C)OC(=O)[C@H](Cc1ccc(O)c(O)c1)N(C)C(=O)/C=C/c1ccc(O)c(O)c1 [Example 40, 3-(3,4-dihydroxy-phenyl)-(S)-2-{[3-trans-(3,4-dihydroxy-phenyl)-acryloyl]-methyl-amino}-propionic acid isopropyl ester]
[1]
  IC50: 10 to 25 µM
[2]
  IC50: 8.7 µM
[3]; [4]
  Arthritis index: 5.9 ± 0.4

## CN(Cc1cnc2nc(N)nc(N)c2n1)c1ccc(C(=O)N[C@@H](CCC(=O)O)C(=O)O)cc1 [MTX, methotrexate, reference compound]
[3]; Methotrexate 1 mg/kg/day every other day in PBS, day 15 after treatment
  Arthritis index: 4.0 ± 1.1

## O=C(O)[C@@H](Cc1ccc(O)c(O)c1)NC(=S)/C=C/c1ccc(O)c(O)c1 [Example 16, 3-(3,4-dihydroxy-phenyl)-(R)-2-[3-trans-(3,4-dihydroxy-phenyl)-thioacryloylamino]-propionic acid]
[1]
  IC50: 25 to 50 µM
[2]
  IC50: 6.7 µM
[3]; [4]
  Arthritis index: 7.2 ± 1.2

## CC(C)(C)OC(=O)[C@@H](Cc1ccc(O)c(O)c1)NC(=O)/C=C/c1ccc(O)c(O)c1 [Example 6, 3-(3,4-dihydroxy-phenyl)-(R)-2-[3-trans-(3,4-dihydroxy-phenyl)-acryloylamino]propionic acid tert-butyl ester]
[1]
  IC50: 10 to 25 µM
[2]
  IC50: 7.8 µM
[3]; [4]
  Arthritis index: 5.8 ± 0.9

## NC(=O)[C@@H](Cc1ccc(O)c(O)c1)NC(=O)/C=C/c1ccc(O)c(O)c1 [Example 7]
[1]
  IC50: < 10 µM
[2]
  IC50: 2.4 µM
[3]; [4]
  Arthritis index: 4.3 ± 1.5

## CC(C)OC(=O)[C@@H](Cc1ccc(O)c(O)c1)N(C)C(=O)/C=C/c1ccc(O)c(O)c1 [Example 33, 3-(3,4-dihydroxy-phenyl)-(R)-2-{[3-trans-(3,4-dihydroxy-phenyl)-acryloyl]-methyl-amino}-propionic acid isopropyl ester]
[1]
  IC50: 10 to 25 µM
[2]
  IC50: 7.8 µM
[3]; [4]
  Arthritis index: 5.7 ± 0.9

## CCCOC(=O)[C@@H](Cc1ccc(O)c(O)c1)NC(=S)/C=C/c1ccc(O)c(O)c1 [Example 18, 3-(3,4-dihydroxy-phenyl)-(R)-2-[3-trans-(3,4-dihydroxy-phenyl)-thioacryloylamino]-propionic acid propyl ester]
[1]
  IC50: 10 to 25 µM
[2]
  IC50: 5.6 µM
[3]; [4]
  Arthritis index: 5.8 ± 0.3

## CCOC(=O)[C@@H](Cc1ccc(O)c(O)c1)NC(=S)/C=C/c1ccc(O)c(O)c1 [Example 17, 3-(3,4-dihydroxy-phenyl)-(R)-2-[3-trans-(3,4-dihydroxy-phenyl)-thioacryloylamino]-propionic acid ethyl ester]
[1]
  IC50: 10 to 25 µM
[2]
  IC50: 4.6 µM
[3]; [4]
  Arthritis index: 5.4 ± 0.7

## COC(=O)[C@@H](Cc1ccc(O)cc1)NC(=O)/C=C/c1ccc(O)c(O)c1 [Example 45]
[1]
  IC50: 10 to 25 µM
[2]
  IC50: 7.8 µM
[3]; [4]
  Arthritis index: 5.7 ± 0.9

## CCOC(=O)[C@@H](Cc1ccc(O)c(O)c1)N(C)C(=O)/C=C/c1ccc(O)c(O)c1 [Example 31]
[1]
  IC50: 10 to 25 µM
[2]
  IC50: 8.9 µM
[3]; [4]
  Arthritis index: 5.9 ± 2.1

## CC(C)OC(=O)[C@H](Cc1ccc(O)c(O)c1)NC(=S)/C=C/c1ccc(O)c(O)c1 [Example 26, 3-(3,4-dihydroxy-phenyl)-(S)-2-[3-trans-(3,4-dihydroxy-phenyl)-thioacryloylamino]-propionic acid isopropyl ester]
[1]
  IC50: 25 to 50 µM
[2]
  IC50: 18.7 µM
[3]; [4]
  Arthritis index: 7.0 ± 0.9

## CCOC(=O)[C@H](Cc1ccc(O)c(O)c1)NC(=S)/C=C/c1ccc(O)c(O)c1 [Example 24, 3-(3,4-dihydroxy-phenyl)-(S)-2-[3-trans-(3,4-dihydroxy-phenyl)-thioacryloylamino]-propionic acid ethyl ester]
[1]
  IC50: 10 to 25 µM
[2]
  IC50: 10.8 µM
[3]; [4]
  Arthritis index: 6.1 ± 0.6

## COC(=O)[C@@H](Cc1ccc(O)c(O)c1)N(C)C(=O)/C=C/c1ccc(O)c(O)c1 [Example 29, 3-(3,4-dihydroxy-phenyl)-(R)-2-{[3-trans-(3,4-dihydroxy-phenyl)-acryloyl]-methyl-amino}-propionic acid methyl ester]
[1]
  IC50: 10 to 25 µM
[2]
  IC50: 7.6 µM
[3]; [4]
  Arthritis index: 6.1 ± 2.1

## CCOC(=O)[C@@H](Cc1ccc(O)c(O)c1)NC(=O)/C=C/c1ccc(O)c(O)c1 [Example 3, 3-(3,4-dihydroxy-phenyl)-(R)-2-[3-trans-(3,4-dihydroxy-phenyl)-acryloylamino]-propionic acid ethyl ester]
[1]
  IC50: < 10 µM
[2]
  IC50: 4.8 µM
[3]; [4]
  Arthritis index: 4.5 ± 0.8

## COC(=O)[C@@H](Cc1ccc(O)c(O)c1)NC/C=C/c1ccc(O)c(O)c1 [Example 53, 3-(3,4-dihydroxy-phenyl)-2-[3-(3,4-dihydroxy-phenyl)-arylamino]-propionic acid methyl ester]
[1]
  IC50: 25 to 50 µM
